The test system of the assay is C57BL/6 mice, Adenocarcinoma 755 sc, tumor weight T/C. As to the kind of experiment: NCI In Vivo Anticancer Drug Screen. Data for tumor model Adenocarcinoma 755 (subcutaneous) in C57BL/6 mice. As to conditions: endpoint: mean tumor weight, higher = larger tumour. The protocol:
The antitumor activity of compounds was measured in mice bearing transplantable tumors. Survival or tumor size were measured and the results are expressed as the measurement made in the treated group (T) divided by the measurement made in the vehicle treated control group (C). The tumor model used in this assay is Adenocarcinoma 755 (subcutaneous) in C57BL/6 mice

Where [1] appears, read: dose: 15.0 mg/kg/injection, schedule: Q01DX011 (ip), vehicle: saline.
Where [2] appears, read: dose: 20.0 mg/kg/injection, schedule: Q01DX011 (ip), vehicle: saline.
Where [3] appears, read: dose: 25.0 mg/kg/injection, schedule: Q01DX011 (ip), vehicle: saline.
Setting [4] is: dose: 0.2 mg/kg/injection, schedule: Q01DX011 (ip), vehicle: saline.
The mark [5] stands for this setting: dose: 125.0 mg/kg/injection, schedule: Q01DX011 (ip), vehicle: saline.
Where [6] appears, read: dose: 50.0 mg/kg/injection, schedule: Q01DX011 (ip), vehicle: carboxymethylcellulose (CMC).
Where [7] appears, read: dose: 50.0 mg/kg/injection, schedule: Q01DX011 (ip), vehicle: saline.
The mark [8] stands for this setting: dose: 100.0 mg/kg/injection, schedule: Q01DX011 (ip), vehicle: saline.
Setting [9] is: dose: 150.0 mg/kg/injection, schedule: Q01DX011 (ip), vehicle: saline.
Where [10] appears, read: dose: 10.0 mg/kg/injection, schedule: Q01DX011 (ip), vehicle: saline.
Where [11] appears, read: dose: 2.5 mg/kg/injection, schedule: Q01DX011 (ip), vehicle: carboxymethylcellulose (CMC).
[12] abbreviates: dose: 30.0 mg/kg/injection, schedule: Q01DX011 (ip), vehicle: saline.
[13] abbreviates: dose: 40.0 mg/kg/injection, schedule: Q01DX011 (ip), vehicle: saline.

This is an account of results in PubChem BioAssay AID218 (DTP/NCI, 2004).

“And” between values parts separate entries of the source, which are not always exact repeats. Identical values can stand only once.

What is called T/C is the result in the treated group divided by that in the control group, in per cent. For the compound `N=C(N)CCNC(=O)C1CCC(N)=N1` (stereo unspecified), the T/C by setting is: (dose: 4.0 mg/kg/injection, schedule: Q02DX006 (ip), vehicle: saline) 59 % of control; (dose: 6.0 mg/kg/injection, schedule: Q02DX006 (ip), vehicle: saline) 29 % of control and 53 % of control; (dose: 10.0 mg/kg/injection, schedule: Q02DX006 (ip), vehicle: saline) 44 % of control.
Turning to `CCNc1ncnc2[nH]ncc12`, the T/C is 13 % of control under setting [1] and 4 % of control under setting [2].
For the compound `O=C1C(NC(=O)C2CCCCC2)=C(N2CC2)C(=O)C(NC(=O)C2CCCCC2)=C1N1CC1`, the T/C is, setting by setting: (dose: 16.0 mg/kg/injection, schedule: Q01DX009 (ip), vehicle: saline) 97 % of control; (dose: 32.0 mg/kg/injection, schedule: Q01DX009 (ip), vehicle: saline) 56 % of control; (dose: 64.0 mg/kg/injection, schedule: Q01DX009 (ip), vehicle: saline) 83 % of control.
Turning to `O=C(c1ccc(C(=O)N2CC2)cc1)N1CC1`, the T/C (dose: 12.5 mg/kg/injection, schedule: Q01DX011 (ip), vehicle: methylcellulose (MC)) is 60 % of control and the T/C (dose: 25.0 mg/kg/injection, schedule: Q01DX011 (ip), vehicle: methylcellulose (MC)) was 53 % of control.
Consider `CCCCNc1ncnc2[nH]ncc12`, for which the T/C under setting [1] was 31 % of control, the T/C under setting [2] was 7 % of control and the T/C under setting [3] is 24 % of control.
For `S=c1nc[nH]c2nc[nH]c12.[Cd]`, the T/C is, setting by setting: (dose: 0.1 mg/kg/injection, schedule: Q01DX011 (ip), vehicle: saline) 60 % of control; under setting [4], 76 % of control; (dose: 0.4 mg/kg/injection, schedule: Q01DX011 (ip), vehicle: saline) 60 % of control; (dose: 0.8 mg/kg/injection, schedule: Q01DX011 (ip), vehicle: saline) 49 % of control.
With `O=[N+]([O-])c1ccc2c(c1)Cc1c-2cc(Br)c(O)c1Br`, the T/C by setting is: (dose: 62.5 mg/kg/injection, schedule: Q01DX011 (ip), vehicle: saline) 60 % of control; under setting [5], 58 % of control; (dose: 250.0 mg/kg/injection, schedule: Q01DX011 (ip), vehicle: saline) 43 % of control; (dose: 500.0 mg/kg/injection, schedule: Q01DX011 (ip), vehicle: saline) 33 % of control.
As to `CSc1nc2nc[nH]c2c(=O)[nH]1`, the T/C under setting [6] was 112 % of control.
Consider `Cn1cnc([N+](=O)[O-])c1SCc1ccccc1`, for which the T/C is, setting by setting: under setting [7], 52 % of control; under setting [8], 49 % of control; under setting [5], 33 % of control; under setting [9], 54 % of control; (dose: 175.0 mg/kg/injection, schedule: Q01DX011 (ip), vehicle: saline) 66 % of control.
As for `C=CC(COC(C)=O)N1CC1` (stereo unspecified), the T/C (dose: 1.87 mg/kg/injection, schedule: Q01DX011 (oral), vehicle: saline) was 107 % of control; the T/C (dose: 3.75 mg/kg/injection, schedule: Q01DX011 (oral), vehicle: saline) is 56 % of control; the T/C (dose: 7.5 mg/kg/injection, schedule: Q01DX011 (oral), vehicle: saline) was 70 % of control and 80 % of control.
Regarding `CCC(C)N1C(=O)CCC1=O` (stereo unspecified), the T/C is 102 % of control (dose: 4.7 mg/kg/injection, schedule: Q01DX011 (ip), vehicle: saline); 103 % of control (dose: 9.4 mg/kg/injection, schedule: Q01DX011 (ip), vehicle: saline); 123 % of control (dose: 18.8 mg/kg/injection, schedule: Q01DX011 (ip), vehicle: saline); 119 % of control (dose: 37.5 mg/kg/injection, schedule: Q01DX011 (ip), vehicle: saline); 59 % of control (dose: 75.0 mg/kg/injection, schedule: Q01DX011 (ip), vehicle: saline); 95 % of control under setting [9].
For the compound `CCCNc1ncnc2c1cnn2C`, the T/C is 46 % of control under setting [10], 32 % of control under setting [1] and 13 % of control under setting [2].
With `N=[N+]=CC(=O)OCC(N)C(=O)O` (stereo unspecified), the T/C was 31 % of control (dose: 4.0 mg/kg/injection, schedule: Q01DX011 (ip), vehicle: saline) and 46 % of control (dose: 8.0 mg/kg/injection, schedule: Q01DX011 (ip), vehicle: saline).
`CSc1ncnc2nc[nH]c12`: the T/C was 16 % of control (dose: 1.25 mg/kg/injection, schedule: Q01DX011 (ip), vehicle: carboxymethylcellulose (CMC)); 8 % of control under setting [11]; 58 % of control (dose: 7.5 mg/kg/injection, schedule: Q01DX011 (ip), vehicle: saline); 23 % of control under setting [10]; 2 % of control under setting [1]; 6 % of control and 9 % of control under setting [2]. In addition, the T/C (dose: 30.0 mg/kg/injection, schedule: Q01DX011 (ip), vehicle: carboxymethylcellulose (CMC)) is 5 % of control; the T/C under setting [12] was 1 % of control and 2 % of control and 9 % of control; the T/C (dose: 40.0 mg/kg/injection, schedule: Q01DX011 (ip), vehicle: carboxymethylcellulose (CMC)) is 2 % of control; the T/C under setting [13] is 3 % of control; the T/C under setting [6] was 3 % of control.
Take `Cn1c(N)nc2nc[nH]c2c1=S`: the T/C by setting is: (dose: 1.0 mg/kg/injection, schedule: Q01DX008 (iv), vehicle: saline) 169 % of control; (dose: 2.0 mg/kg/injection, schedule: Q01DX008 (iv), vehicle: saline) 173 % of control; (dose: 4.0 mg/kg/injection, schedule: Q01DX008 (iv), vehicle: saline) 79 % of control; (dose: 32.0 mg/kg/injection, schedule: Q01DX008 (iv), vehicle: saline) 67 % of control; (dose: 64.0 mg/kg/injection, schedule: Q01DX008 (iv), vehicle: saline) 65 % of control.
With `Cn1ncc2c(N)ncnc21`, the T/C (dose: 20.0 mg/kg/injection, schedule: Q02DX006 (ip), vehicle: other) is 47 % of control and the T/C (dose: 40.0 mg/kg/injection, schedule: Q02DX006 (ip), vehicle: other) is 28 % of control.
Consider `COC1=C(N)C(=O)c2nc(-c3nc(C(=O)O)c(C)c(-c4ccc(OC)c(OC)c4O)c3N)ccc2C1=O`, for which the T/C by setting is: (dose: 0.06 mg/kg/injection, schedule: Q01DX011 (ip), vehicle: saline) 84 % of control; (dose: 0.09 mg/kg/injection, schedule: Q01DX011 (ip), vehicle: saline) 77 % of control; (dose: 0.13 mg/kg/injection, schedule: Q01DX011 (ip), vehicle: saline) 64 % of control; under setting [4], 38 % of control.
Consider `CN(C)C1C(=O)C(C(N)=O)=C(O)C2(O)C(=O)C3=C(O)c4c(O)cccc4C(C)(O)C3C(O)C12` (stereo unspecified), for which the T/C reads like this: (dose: 125.0 mg/kg/injection, schedule: Q02DX006 (ip), vehicle: water) 58 % of control; (dose: 150.0 mg/kg/injection, schedule: Q02DX006 (ip), vehicle: water) 106 % of control.
For `c1ccc(CNc2ncnc3[nH]ncc23)cc1`, the T/C under setting [3] was 27 % of control, the T/C under setting [12] is 25 % of control and the T/C under setting [13] was 4 % of control.
With `NNc1nc2nc[nH]c2c(=O)[nH]1`, the T/C under setting [7] was 35 % of control.
Regarding `O=[N+]([O-])c1ccc(CSc2ncnc3nc[nH]c23)cc1`, the T/C under setting [8] was 4 % of control.
With `O=c1[nH]cc(Br)c(=O)[nH]1`, the T/C is 56 % of control (dose: 50.0 mg/kg/injection, schedule: Q02DX006 (ip), vehicle: other) and 71 % of control (dose: 75.0 mg/kg/injection, schedule: Q02DX006 (ip), vehicle: other).
As to `CS(=O)(=O)OCCCCOS(C)(=O)=O`, the T/C is 86 % of control under setting [11]; 57 % of control (dose: 5.0 mg/kg/injection, schedule: Q01DX011 (ip), vehicle: carboxymethylcellulose (CMC)); 69 % of control (dose: 10.0 mg/kg/injection, schedule: Q01DX011 (ip), vehicle: carboxymethylcellulose (CMC)); 59 % of control (dose: 10.0 mg/kg/injection, schedule: Q02DX006 (ip), vehicle: other); 51 % of control (dose: 12.5 mg/kg/injection, schedule: Q02DX006 (ip), vehicle: other); 56 % of control (dose: 15.0 mg/kg/injection, schedule: Q01DX011 (ip), vehicle: carboxymethylcellulose (CMC)). In addition, the T/C by setting is: (dose: 15.0 mg/kg/injection, schedule: Q02DX006 (ip), vehicle: other) 76 % of control; (dose: 20.0 mg/kg/injection, schedule: Q01DX011 (ip), vehicle: carboxymethylcellulose (CMC)) 49 % of control; (dose: 25.0 mg/kg/injection, schedule: Q01DX011 (ip), vehicle: carboxymethylcellulose (CMC)) 26 % of control.
